This note sets out measurements from ChEMBL document CHEMBL6182857, “Targeting biofilm formation in Candida albicans with halogenated pyrrolopyrimidine derivatives” (Eur J Med Chem, 2025).

Data set [1] concerns Candida albicans. The experiment in a line: Antibiofilm activity against fluconazole-resistant Candida albicans DAY185 assessed as inhibition of biofilm formation at 50 ug/ml measured after 24 hrs by crystal violet staining based analysis relative to control. It is filed as functional.
The test system of data set [2] is Candida albicans. The experiment in a line: Antibiofilm activity against fluconazole-resistant Candida albicans DAY185 assessed as inhibition of biofilm formation at 20 ug/ml measured after 24 hrs by crystal violet staining based analysis relative to control. It is filed as functional.
Data set [3] deals with Candida albicans. The experiment in a line: Antibiofilm activity against fluconazole-resistant Candida albicans DAY185 assessed as inhibition of biofilm formation at 5 ug/ml measured after 24 hrs by crystal violet staining based analysis relative to control. The following applies: dose 5.0 µg/ml. It is filed as functional, organism-based.
Data set [4] relates to Candida albicans. The experiment in a line: Antibiofilm activity against fluconazole-resistant Candida albicans DAY185 assessed as inhibition of biofilm formation at 1 ug/ml measured after 24 hrs by crystal violet staining based analysis relative to control. The class given is functional.
Data set [5] has as its system Candida albicans. The experiment in a line: Inhibition of yeast to hypha transition in fluconazole-resistant Candida albicans DAY185 assessed as decrease in hyphal adhesion at 5 to 20 ug/ml measured after 24 hrs by SEM analysis. The following applies: dose 5-20 µg/ml. The class given is functional, organism-based.
Data set [6] concerns Candida albicans. The experiment in a line: Upregulation of YWP1 mRNA level in fluconazole-resistant Candida albicans DAY185 assessed as fold increase at 50 ug/ml incubated for 6 hrs by qRT-PCR analysis relative to control. It is filed as functional. The following applies: dose 50.0 µg/ml.
Data set [7] relates to Candida albicans. The experiment in a line: Downregulation of ECE1 mRNA level in fluconazole-resistant Candida albicans DAY185 assessed as fold decrease at 50 ug/ml incubated for 6 hrs by qRT-PCR analysis relative to control. The class given is functional. The following applies: dose 50.0 µg/ml.
The test system of data set [8] is Candida albicans. The experiment in a line: Upregulation of CDR11 mRNA level in fluconazole-resistant Candida albicans DAY185 assessed as fold increase at 50 ug/ml incubated for 6 hrs by qRT-PCR analysis relative to control. The class given is functional. Conditions: dose 50.0 µg/ml.
Data set [9] relates to Candida albicans. The experiment in a line: Antibiofilm activity against Candida albicans ATCC 10231 assessed as inhibition of biofilm formation by crystal violet staining based analysis. It is filed as functional, organism-based.
The test system of data set [10] is Candida albicans. The experiment in a line: Inhibition of yeast to hypha transition in fluconazole-resistant Candida albicans DAY185 assessed as decrease in hyphal growth at 5 to 20 ug/ml measured after 24 hrs by SEM analysis. The class given is functional, organism-based. Conditions: dose 5-20 µg/ml.
Data set [11] has as its system [Candida] auris. The experiment in a line: Antibiofilm activity against Candida auris KCTC 17809 assessed as inhibition of biofilm formation by crystal violet staining based analysis. The class given is functional, organism-based. The following applies: Candidozyma auris.
In data set [12] the test system is Candida albicans. The experiment in a line: Antibiofilm activity against fluconazole-resistant Candida albicans DAY185 assessed as inhibition of biofilm formation on bio-compatible PLGA surface coated with compound at 10 to 20 ug/ml incubated for 24 hrs by CLSM analysis. The class given is functional, organism-based. The following applies: dose 10-20 µg/ml.
Data set [13] is described as follows: Toxicity in Caenorhabditis elegans assessed as nematode survival at 100 ug/ml treated for 7 days. Conditions: 168 h, dose 100 µg/ml, time 7 day.
The subject of data set [14] is Candida albicans. The experiment in a line: Downregulation of HWP1 mRNA level in fluconazole-resistant Candida albicans DAY185 assessed as fold decrease at 50 ug/ml incubated for 6 hrs by qRT-PCR analysis relative to control. The class given is functional. Conditions: dose 50.0 µg/ml.
Data set [15] concerns Candida albicans. The experiment in a line: Inhibition of yeast to hypha transition in fluconazole-resistant Candida albicans DAY185 assessed as decrease in filamentous growth at 10 to 20 ug/ml measured after 24 hrs by SEM analysis. The class given is functional, organism-based. Conditions: dose 10-20 µg/ml.
The subject of data set [16] is Candida albicans. The experiment in a line: Antibiofilm activity against fluconazole-resistant Candida albicans DAY185 assessed as reduction in biofilm mass on bio-compatible PLGA surface coated with compound incubated for 24 hrs by COMSTAT analysis. It is filed as functional, organism-based.
Data set [17] relates to Candida albicans. The experiment in a line: Downregulation of ALS3 mRNA level in fluconazole-resistant Candida albicans DAY185 assessed as fold decrease at 50 ug/ml incubated for 6 hrs by qRT-PCR analysis relative to control. The class given is functional. Conditions: dose 50.0 µg/ml.
The subject of data set [18] is [Candida] auris. The experiment in a line: Antibiofilm activity against Candida auris KCTC 17810 assessed as inhibition of biofilm formation by crystal violet staining based analysis. It is filed as functional, organism-based. Conditions: Candidozyma auris.
Data set [19] relates to Candida albicans. The experiment in a line: Antibiofilm activity against fluconazole-resistant Candida albicans DAY185 assessed as reduction in biofilm thickness on bio-compatible PLGA surface coated with compound at 10 to 20 ug/ml incubated for 24 hrs by CLSM analysis. It is filed as functional, organism-based. The following applies: dose 10-20 µg/ml.
Data set [20] has as its system Candida albicans. The experiment in a line: Additive antibiofilm activity against fluconazole-resistant Candida albicans DAY185 assessed as inhibition of biofilm formation at 10 ug/ml measured after 24 hrs in presence of BTZ by crystal violet staining based analysis relative to control. Conditions: dose 10.0 µg/ml. It is filed as functional, organism-based.
The test system of data set [21] is Candida albicans. The experiment in a line: Antibiofilm activity against fluconazole-resistant Candida albicans DAY185 assessed as reduction in substratum coverage on bio-compatible PLGA surface coated with compound at 20 ug/ml incubated for 24 hrs by COMSTAT analysis. It is filed as functional, organism-based. Conditions: dose 20.0 µg/ml.
Data set [22] relates to Candida albicans. The experiment in a line: Inhibition of yeast to hypha transition in fluconazole-resistant Candida albicans DAY185 assessed as decrease in cell aggregation at 10 to 20 ug/ml measured after 24 hrs by SEM analysis. Conditions: dose 10-20 µg/ml. It is filed as functional, organism-based.
In data set [23] the test system is Candida albicans. The experiment in a line: Additive antibiofilm activity against fluconazole-resistant Candida albicans DAY185 assessed as inhibition of biofilm formation at 10 ug/ml measured after 24 hrs in presence of AMB by crystal violet staining based analysis relative to control. The following applies: dose 10.0 µg/ml. The class given is functional, organism-based.

The next data set has as its system Brassica rapa. The experiment in a line: Toxicity in Brassica rapa assessed as seed germination rate at 10 to 100 ug/ml treated for 4 days relative to control. It is filed as organism-based. The following applies: in vivo, 96 h, at 10 to 100 µg/mL, dose 10-100 µg/ml, time 4 day.
Data set [24] has as its system Candida albicans. The experiment in a line: Inhibition of yeast to hypha transition in fluconazole-resistant Candida albicans DAY185 assessed as decrease in germ tube formation at 10 to 20 ug/ml measured after 24 hrs by SEM analysis. It is filed as functional, organism-based. The following applies: dose 10-20 µg/ml.
For data set [25], the system named is Candida albicans. The experiment in a line: Downregulation of UME6 mRNA level in fluconazole-resistant Candida albicans DAY185 assessed as fold decrease at 50 ug/ml incubated for 6 hrs by qRT-PCR analysis relative to control. It is filed as functional. The following applies: dose 50.0 µg/ml.
For data set [26], the system named is Candida albicans. The experiment in a line: Antibiofilm activity against Candida albicans KCCM 12552 assessed as inhibition of biofilm formation by crystal violet staining based analysis. The class given is functional, organism-based.
For data set [27], the system named is Candida albicans. The experiment in a line: Antibiofilm activity against fluconazole-resistant Candida albicans DAY185 assessed as inhibition of biofilm formation at 10 to 20 ug/ml measured after 24 hrs by 2D/3D imaging analysis relative to control. The class given is functional. Conditions: dose 10-20 µg/ml.
Data set [28] concerns Candida albicans. The experiment in a line: Antibiofilm activity against fluconazole-resistant Candida albicans DAY185 assessed as reduction in mean biofilm thickness on bio-compatible PLGA surface coated with compound incubated for 24 hrs by COMSTAT analysis. It is filed as functional, organism-based.
The subject of data set [29] is Candida albicans. The experiment in a line: Antibiofilm activity against fluconazole-resistant Candida albicans DAY185 assessed as reduction in overall biofilm mass on bio-compatible PLGA surface coated with compound at 10 to 20 ug/ml incubated for 24 hrs by CLSM analysis. It is filed as functional, organism-based. Conditions: dose 10-20 µg/ml.
Data set [30] deals with Candida albicans. The experiment in a line: Antibiofilm activity against fluconazole-resistant Candida albicans DAY185 assessed as inhibition of biofilm formation at 0.5 ug/ml measured after 24 hrs by crystal violet staining based analysis relative to control. It is filed as functional, organism-based. Conditions: dose 0.5 µg/ml.

Activity calls are given as the source filed them. No cut-off for these calls is given here. Some results are limits rather than exact numbers.

With `Clc1ncnc2[nH]cc(Br)c12`, the inhibition at 50 µg/mL with Candida albicans [1] was > 85%.

For the compound `Clc1c[nH]c2ncnc(Cl)c12`, the inhibition at 50 µg/mL in the data set on Candida albicans [1] was > 85%.

In the case of `Clc1nc(Cl)c2c(Br)c[nH]c2n1`, the inhibition at 20 µg/mL with Candida albicans [2] is > 85%. Further, in the data set with Candida albicans [1], the inhibition at 50 µg/mL was > 95%.

On to `Clc1ccc(CCC(Cn2ccnc2)Sc2c(Cl)cccc2Cl)cc1` (stereo not drawn) [BUTOCONAZOLE], for which the inhibition result in the data set on Candida albicans [3] was “Active”. Further, the inhibition at 1 µg/mL in the data set with Candida albicans [4] was found to be 56%.

On to `Clc1ncnc2[nH]cc(I)c12`, for which the inhibition result in the data set on Candida albicans [5], in the data set on Candida albicans [10], in the data set with Candida albicans [12], in the data set on Candida albicans [15], in the data set on Candida albicans [20] and in the data set with Candida albicans [22] was “Active” in each case. Further, the inhibition result with Candida albicans [23] and in the data set with Candida albicans [24] was “Active” in each case. The fold change (FC) with Candida albicans [6] was 14; in the data set on Candida albicans [7] it was 267; in the data set on Candida albicans [8], 13; with Candida albicans [14] it was 55; in the data set with Candida albicans [17], 145; in the data set with Candida albicans [25], 15. The inhibition entry with Candida albicans [9] is “Dose-dependent-effect”; in data set [Candida] auris [11], “Dose-dependent-effect”; in [Candida] auris [18] it was “Dose-dependent-effect”; in the data set on Candida albicans [26], “Dose-dependent-effect”; with Candida albicans [27] it was “Active; Significant Effect Was Observed At 20 Ug/Ml”. In addition, the Activity result in data set [13] is “Toxic”; with Candida albicans [16], “Dose-dependent-effect; Nearly Undetectable Levels Were Observed At 20 Ug/Ml”; in the data set with Candida albicans [19], “Active; More Pronounced Effects Were Observed At Higher Concentration”; in the data set with Brassica rapa, > 90%; with Candida albicans [28] it was “Dose-dependent-effect; Nearly Undetectable Levels Were Observed At 20 Ug/Ml”; with Candida albicans [29] it was “Active; More Pronounced Effects Were Observed At Higher Concentration”. For the same compound, the inhibition at 20 µg/mL with Candida albicans [2] is > 85%. Further, the inhibition at 50 µg/mL in the data set on Candida albicans [1] is > 95%. Further, the outcome in the data set on Candida albicans [21] was Active.

With `CC(=O)N1CCN(c2ccc(OCC3COC(Cn4ccnc4)(c4ccc(Cl)cc4Cl)O3)cc2)CC1` (stereo not drawn) [KETOCONAZOLE], the inhibition at 1 µg/mL in the data set with Candida albicans [4] was < 12%.

Turning to `C[C@@H]1[C@H](O)[C@@H](C)/C=C/C=C/C=C/C=C/C=C/C=C/C=C/[C@H](O[C@@H]2O[C@H](C)[C@@H](O)[C@H](N)[C@@H]2O)C[C@@H]2O[C@](O)(C[C@@H](O)C[C@@H](O)[C@H](O)CC[C@@H](O)C[C@@H](O)CC(=O)O[C@H]1C)C[C@H](O)[C@H]2C(=O)O` [AMPHOTERICIN B], the inhibition result with Candida albicans [30] was “Active”. The inhibition at 1 µg/mL with Candida albicans [4] is 96%.

As to `OC(Cn1cncn1)(Cn1cncn1)c1ccc(F)cc1F` [FLUCONAZOLE], in the data set on Candida albicans [4], the inhibition at 1 µg/mL is < 12%.
